Our source for the IC50 values is US11931343B2 (ARCUS BIOSCIENCES, INC., priority 2018, dated 2024).

The target in this test is T1, human CD73 (Homo sapiens, UniProt P21589).
T1 sequence (P21589 27-549): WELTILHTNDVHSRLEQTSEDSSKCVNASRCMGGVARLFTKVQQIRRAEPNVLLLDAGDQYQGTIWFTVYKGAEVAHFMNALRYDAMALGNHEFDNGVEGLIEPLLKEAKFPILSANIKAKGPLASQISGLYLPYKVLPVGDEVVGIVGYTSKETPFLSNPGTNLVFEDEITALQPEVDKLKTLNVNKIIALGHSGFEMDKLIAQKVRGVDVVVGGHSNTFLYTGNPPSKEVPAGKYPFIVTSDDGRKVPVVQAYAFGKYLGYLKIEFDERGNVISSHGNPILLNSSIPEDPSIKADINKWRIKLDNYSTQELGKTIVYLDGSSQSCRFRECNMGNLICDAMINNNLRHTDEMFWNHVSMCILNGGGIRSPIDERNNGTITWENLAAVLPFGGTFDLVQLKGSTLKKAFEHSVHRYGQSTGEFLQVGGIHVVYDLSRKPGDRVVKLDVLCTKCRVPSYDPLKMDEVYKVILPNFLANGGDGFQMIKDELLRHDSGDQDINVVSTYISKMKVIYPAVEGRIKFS
Briefly: Inhibition of Ecto-5′-nucleotidase (CD73) activity in CHO-CD73 cells, phosphate release from AMP. The note with it: CHO-K1 cells stably transfected with human CD73; 25 μM AMP; 50 minutes, 37° C.; read-out: Potency: CD73 IC50. The format is cell-based.

Take `FC(F)(F)c1cc(-c2ccnn2Cc2ccc(Cl)cc2Cl)cc2c1nnn2-c1ccc2cn[nH]c2c1` [Example 122]: the IC50 – broadly, the concentration needed to halve the response being measured – lay in the range of 0.1 to 1 µM.

`COCc1ccc(Cn2nccc2-c2cc(F)c3nnn(-c4ccc5[nH]c(=O)[nH]c5c4)c3c2)cc1` [Example 220]: the 50% inhibitory concentration (IC50) is greater than 1 µM.

For the compound `N#Cc1ccc(Cn2nccc2-c2ccc3nnn(-c4ccc5[nH]c(=O)[nH]c5c4)c3c2)c(F)c1` [Example 240], the IC50 fell in the range of 0.1 to 1 µM.

Regarding `O=c1[nH]c2ccc(-n3nnc4c(F)cc(-c5ccnn5Cc5ccccn5)cc43)cc2[nH]1` [Example 201], the half-maximal inhibitory concentration (IC50) was greater than 1 µM.

As for `CC(c1ccccc1)n1nccc1-c1cc(F)c2nnn(-c3ccc4cn[nH]c4c3)c2c1` (centres unmarked) [Example 71], the IC50 is greater than 1 µM.

For `Cc1cc(Cl)cnc1Cn1nccc1-c1cc(Cl)c2nnn(-c3ccc4[nH]c(=O)[nH]c4c3)c2c1` [Example 225], the IC50 was 0.1 to 1 µM.

In the case of `Fc1cc(-c2ccnn2-c2ccc3[nH]ncc3c2)cc2c1nnn2-c1ccc2cn[nH]c2c1` [Example 394], the IC50 was greater than 1 µM.

In the case of `Cc1cc(Cl)ccc1Cn1nccc1-c1cc(Cl)c2nnn(-c3ccc4cn[nH]c4c3)c2c1` [Example 96], the IC50 was less than 0.1 µM.

On to `Cc1cc(-n2nccc2-c2cc(Cl)c3nnn(-c4ccc5[nH]c(=O)[nH]c5c4)c3c2)cc(C)n1` [Example 300], for which the half-maximal inhibitory concentration (IC50) lay in the range of 0.1 to 1 µM.

Regarding `N#Cc1cccc(Cn2nccc2-c2ccc3nnn(-c4ccc5cn[nH]c5c4)c3c2)c1` [Example 48], the IC50 is greater than 1 µM.

In the case of `N#Cc1ccc(Cn2nccc2-c2cnc3c(c2)c(-c2ccc4[nH]c(=O)[nH]c4c2)nn3CCO)cc1` [Example 324], the half-inhibitory concentration (IC50) is greater than 1 µM.

As to `O=c1[nH]c2ccc(-n3nnc4c(Cl)cc(-c5ccnn5Cc5ccncc5F)cc43)cc2[nH]1` [Example 238], the IC50 is 0.1 to 1 µM.

Take `Cc1cccc(-n2ncc(C)c2-c2cc(F)c3nnn(-c4ccc5cn[nH]c5c4)c3c2)c1` [Example 416]: the half-inhibitory concentration (IC50) was greater than 1 µM.

Consider `Cn1nccc1-c1cc(C#N)ccc1Cn1nccc1-c1cc(F)c2nnn(-c3ccc4[nH]c(=O)[nH]c4c3)c2c1` [Example 303], for which the IC50 fell in the range of 0.1 to 1 µM.

Regarding `O=c1[nH]c2ccc(-n3nnc4cnc(-c5ccnn5Cc5ccc(Cl)cc5F)cc43)cc2[nH]1` [Example 193], the half-inhibitory concentration (IC50) lay in the range of 0.1 to 1 µM.

Regarding `Cc1cc(F)ccc1Cn1nccc1-c1cc(Cl)c2nnn(-c3ccc4[nH]c(=O)[nH]c4c3)c2c1` [Example 208], the IC50 was in the range of 0.1 to 1 µM.

For the compound `Cc1ncc(Cn2nccc2-c2cc(Cl)c3nnn(-c4ccc5[nH]c(=O)[nH]c5c4)c3c2)o1` [Example 244], the IC50 was greater than 1 µM.

As to `Fc1cc(-c2ccnn2Cc2ccccc2C(F)(F)F)cc2c1nnn2-c1ccc2cn[nH]c2c1` [Example 103], the IC50 was in the range of 0.1 to 1 µM.

On to `Fc1cc(Cn2nccc2-c2cc(Cl)c3nnn(-c4ccc5cn[nH]c5c4)c3c2)ccc1Cl` [Example 82], for which the concentration for half-maximal inhibition (IC50) is less than 0.1 µM.

Take `N#Cc1ccc(Cn2nccc2-c2cc(F)c3nnn(-c4ccc5c(CNS(N)(=O)=O)n[nH]c5c4)c3c2)cc1` [Example 347]: the concentration for half-maximal inhibition (IC50) was greater than 1 µM.

For the compound `N#Cc1ccc(Cn2nccc2-c2cnc3cnn(-c4ccc5cn[nH]c5c4)c3c2)nc1` [Example 179], the half-inhibitory concentration (IC50) was greater than 1 µM.

As for `N#Cc1ccc(Cn2nccc2-c2cnc3c(N)nn(-c4ccc5cn[nH]c5c4)c3c2)nc1` [Example 281], the 50% inhibitory concentration (IC50) lay within 0.1 to 1 µM.

For `Fc1cc2nnn(-c3ccc4cn[nH]c4c3)c2cc1-c1ccnn1Cc1ccccc1` [Example 136], the half-maximal inhibitory concentration (IC50) is greater than 1 µM.

`c1cc(-c2ccc3nnn(-c4ccc5cn[nH]c5c4)c3c2)n(CC2CC2)n1` [Example 47]: the half-inhibitory concentration (IC50) was greater than 1 µM.

For `O=c1[nH]c2ccc(-n3nnc4c(Cl)cc(-c5ccnn5C5Cc6ccc(Cl)cc6C5)cc43)cc2[nH]1` (centres unmarked) [Example 275], the IC50 lay within 0.1 to 1 µM.

Turning to `O=c1[nH]c2ccc(-n3nnc4c(F)cc(-c5ccnn5Cc5ccc6[nH]ncc6c5)cc43)cc2[nH]1` [Example 223], the concentration for half-maximal inhibition (IC50) was 0.1 to 1 µM.

On to `Clc1cc(-c2ccnn2Cc2ccccn2)cc2c1nnn2-c1ccc2cn[nH]c2c1` [Example 45], for which the half-inhibitory concentration (IC50) was in the range of 0.1 to 1 µM.

Regarding `O=c1[nH]c2ccc(-n3nnc4ncc(-c5ccnn5Cc5ccc(Cl)cc5Cl)cc43)cc2[nH]1` [Example 158], the IC50 is 0.1 to 1 µM.

In the case of `N#Cc1ccc(Cn2nccc2-c2cc(F)c3nnn(-c4ccc5[nH]c(=O)[nH]c5c4)c3c2)c(CN[C@H]2CCOC2)c1` [Example 277], the 50% inhibitory concentration (IC50) is greater than 1 µM.

Consider `O=c1[nH]c2ccc(-n3nnc4c(F)cc(-c5ccnn5Cc5ccc(F)cn5)cc43)cc2[nH]1` [Example 173], for which the IC50 was 0.1 to 1 µM.

As to `Cc1nc(-c2ccnn2Cc2ccc(C#N)cc2)cc2c1nnn2-c1ccc2cn[nH]c2c1` [Example 169], the IC50 was in the range of 0.1 to 1 µM.

For `N#Cc1ccc(Cn2nccc2-c2cnc3c(NCC(O)CO)nn(-c4ccc5cn[nH]c5c4)c3c2)cc1` (centres unmarked) [Example 422], the IC50 is greater than 1 µM.

In the case of `CC(c1ccc(C#N)cc1)n1nccc1-c1ccc2nnn(-c3ccc4cn[nH]c4c3)c2c1` (centres unmarked) [Example 115], the IC50 was 0.1 to 1 µM.

`O=c1[nH]c2ccc(-n3nnc4c(F)cc(-c5ccnn5CCc5ccc(Cl)cc5)cc43)cc2[nH]1` [Example 205]: the 50% inhibitory concentration (IC50) was greater than 1 µM.

`Cn1nccc1Cn1nccc1-c1cc(F)c2nnn(-c3ccc4[nH]c(=O)[nH]c4c3)c2c1` [Example 249]: the IC50 is greater than 1 µM.

Regarding `CC(C)(O)c1ccc(Cn2nccc2-c2cc(F)c3nnn(-c4ccc5[nH]c(=O)[nH]c5c4)c3c2)cc1` [Example 183], the IC50 was greater than 1 µM.

For the compound `CC(c1ccc(Cl)cn1)n1nccc1-c1cc(F)c2nnn(-c3ccc4cn[nH]c4c3)c2c1` (centres unmarked) [Example 377], the 50% inhibitory concentration (IC50) lay within 0.1 to 1 µM.

For the compound `c1ccc(Cn2nccc2-c2cc3c(cn2)nnn3-c2ccc3cn[nH]c3c2)cc1` [Example 128], the half-maximal inhibitory concentration (IC50) lay in the range of 0.1 to 1 µM.

Take `CC(C)c1cccc(-n2nccc2-c2cc(Cl)c3nnn(-c4ccc5[nH]c(=O)[nH]c5c4)c3c2)c1` [Example 258]: the 50% inhibitory concentration (IC50) was 0.1 to 1 µM.

For the compound `N#Cc1ccc(Cn2nccc2-c2ccc3nnn(-c4ccc5[nH]c(=O)[nH]c5c4)c3c2)nc1` [Example 204], the IC50 was 0.1 to 1 µM.

In the case of `N#Cc1ccc(Cn2nccc2-c2cc3c(cc2F)nnn3-c2ccc3cn[nH]c3c2)cc1` [Example 378], the IC50 is less than 0.1 µM.

Consider `N#Cc1ccc(Cn2nccc2-c2cnc3c(NCCO)nn(-c4ccc5cn[nH]c5c4)c3c2)cc1` [Example 420], for which the concentration for half-maximal inhibition (IC50) was greater than 1 µM.

As to `Nc1cc(-n2nnc3c(F)cc(-c4ccnn4Cc4ccc(Cl)cn4)cc32)ccc1O` [Example 160], the IC50 was greater than 1 µM.

`N#Cc1ccc(Cn2nccc2-c2cc(F)c3nnn(-c4ccc5[nH]c(=O)[nH]c5c4)c3c2)c(C(F)(F)F)c1` [Example 271]: the IC50 is 0.1 to 1 µM.

For the compound `O=c1[nH]c2ccc(-n3ncc4ncc(-c5ccnn5Cc5ccc(Cl)cc5Cl)cc43)cc2[nH]1` [Example 190], the half-maximal inhibitory concentration (IC50) lay in the range of 0.1 to 1 µM.

Regarding `N#Cc1cc(F)c(Cn2nccc2-c2cc(F)c3nnn(-c4ccc5[nH]c(=O)[nH]c5c4)c3c2)c(Cl)c1` [Example 276], the IC50 was greater than 1 µM.

Take `Fc1cc(-c2ccnn2Cc2ccc(Cl)cc2)cc2c1nnn2-c1ccc2cn[nH]c2c1` [Example 64]: the half-maximal inhibitory concentration (IC50) was less than 0.1 µM.

`N#CCc1ccc(Cn2nccc2-c2cc(F)c3nnn(-c4ccc5[nH]c(=O)[nH]c5c4)c3c2)cc1` [Example 319]: the IC50 is greater than 1 µM.

Take `CCS(=O)(=O)c1cc(C#N)ccc1Cn1nccc1-c1cc(F)c2nnn(-c3ccc4[nH]c(=O)[nH]c4c3)c2c1` [Example 261]: the IC50 is 0.1 to 1 µM.

As to `N#Cc1ccc(Cn2nccc2-c2cc(F)c3nnn(-c4ccc5cn[nH]c5c4)c3c2)nc1` [Example 107], the IC50 is 0.1 to 1 µM.

Regarding `N#Cc1cccc(-n2nccc2-c2cc(F)c3nnn(-c4ccc5[nH]c(=O)[nH]c5c4)c3c2)c1` [Example 198], the half-inhibitory concentration (IC50) is greater than 1 µM.

Turning to `Cc1cccc(-n2nccc2-c2cc3c(cc2F)nnn3-c2ccc3cn[nH]c3c2)c1` [Example 393], the IC50 is 0.1 to 1 µM.

As for `N#Cc1ccc(Cn2nccc2-c2cc3c(nnn3-c3ccc4[nH]c(=O)[nH]c4c3)c(=O)[nH]2)cc1` [Example 359], the IC50 lay in the range of 0.1 to 1 µM.

As for `Cc1ccc(F)c(-n2nccc2-c2cc(F)c3nnn(-c4ccc5cn[nH]c5c4)c3c2)c1` [Example 388], the half-maximal inhibitory concentration (IC50) was greater than 1 µM.

For `N#Cc1ccc(Cn2nccc2-c2cc3c(cn2)nnn3-c2ccc3cn[nH]c3c2)cc1` [Example 140], the half-inhibitory concentration (IC50) was 0.1 to 1 µM.

With `N#Cc1cnc(Cn2nccc2-c2cc(Cl)c3nnn(-c4ccc5[nH]c(=O)[nH]c5c4)c3c2)c(Cl)c1` [Example 269], the IC50 lay within 0.1 to 1 µM.

With `N#Cc1ccc(Cn2nccc2-c2cc(F)c3nnn(-c4ccc5[nH]c(=O)[nH]c5c4)c3c2)c(C(=O)N2CC(O)C2)c1` [Example 308], the half-maximal inhibitory concentration (IC50) was greater than 1 µM.

`N#Cc1ccc(Cn2nccc2-c2cnc3c(N)nn(-c4ccc5[nH]c(=O)[nH]c5c4)c3c2)cc1` [Example 219]: the IC50 is 0.1 to 1 µM.

Take `Cc1cc(C#N)ccc1Cn1nccc1-c1cc(Cl)c2nnn(-c3ccc4[nH]c(=O)[nH]c4c3)c2c1` [Example 270]: the IC50 is less than 0.1 µM.

With `Cc1cccc(-n2nccc2-c2cc3c(cc2C)nnn3-c2ccc3cn[nH]c3c2)c1` [Example 406], the IC50 is greater than 1 µM.

Consider `Cc1cccc(-n2nccc2-c2cc3c(cc2Cl)nnn3-c2ccc3cn[nH]c3c2)c1` [Example 411], for which the 50% inhibitory concentration (IC50) was 0.1 to 1 µM.

For `Cn1nc(-c2ccc3[nH]c(=O)[nH]c3c2)c2cc(-c3ccnn3Cc3ccc(C#N)cc3)cnc21` [Example 316], the IC50 is 0.1 to 1 µM.
